Reference: the NIST ThermoML archive (doi:10.1016/j.jct.2019.03.036)
Numbers after ± are expanded uncertainties.

Conditions: Liquid, Ebulliometric method (Recirculating still)

CCCOC(C)=O [propyl ethanoate]
vapor or sublimation pressure (374.62 K): 101.3 ± 3.6 kPa

CCOC(C)=O [ethyl acetate]
vapor or sublimation pressure (350.29 K): 101.3 ± 3.6 kPa

C[S+](C)[O-] [dimethyl sulfoxide]
vapor or sublimation pressure (463.27 K): 101.3 ± 3.6 kPa
